Measured values from PMC11407372, “New imidazolidindionedioximes and their Pt(II) complexes: synthesis and investigation of their antitumoral activities on breast cancer cells” (Turkish Journal of Chemistry, 2024).

Key:
[1] = test system: CCD-1079Sk healthy fibroblast cell line; assay: MTT cytotoxicity assay; format: cell-based; conditions: 24 h, mean ± standard deviation
Procedure: (§1) CCD-1079Sk healthy fibroblast cell line, MCF-7, and MDA-MB-231 breast cancer cell lines were used in this study. The cells were grown in DMEM/F12 medium containing 10% fetal bovine serum (FBS) and 100 U/mL penicillin/streptomycin at 37 °C in a humidified incubator with 5% CO2. After bringing 80% confluency, the cells were detached using a trypsin solution. For further experiments, cells were resuspended in the growth medium after collection and centrifugation.
(§2) To determine cytotoxicity, the MTT assay was performed using L1aPt-m, L1bPt-m, L1cPt-m, L1aPt-b, L1bPt-b, L1cPt-b, cisPt, and bicalutamide (bical) samples at 10 different concentrations ranging from 100 μM to 0.19 μM (100, 50, 25, 12.5, 6.25, 3.12, 1.56, 0.78, 0.39, and 0.19 μM). The samples were dissolved in DMSO and diluted with the medium. Initial DMSO concentration was kept below 1% to avoid toxicity from the solvent. Briefly, the cells were seeded to 96-well plates at 5 × 10^3 cells/well in a volume of 200 μL, and cells were inoculated overnight. After that, old medium was removed, 100 μL of fresh medium and 100 μL of sample were added to the wells. The cells were incubated with the samples for 24 h. At the end of incubation with the samples, 30 μL of 3-(4,5-dimethylthiazol-2-yl)-2,5-diphenyltetrazolium bromide (MTT) solution was added. After 3 h the medium was removed and 100 μL of DMSO was added to dissolve the formazan crystals. Then the absorbance values were recorded at 540 nm using an ELISA microplate reader (Synergy H1, BioTek). All the experiments were carried out in triplicates, and the results were presented as a mean ± standard deviation. The IC50 values of samples were calculated using a percentage of relative cell viability via GraphPad Prism 5. The viability percentages of cells were calculated using the following formula:
(§3) %relative cell viability=(Abssample/Abscontrol)×100.

[2] = test system: MCF-7 human breast cancer cell line; assay: MTT cytotoxicity assay; format: cell-based; conditions: mean ± standard deviation
Procedure: as §1, §2, §3

[3] = test system: MDA-MB-231 human breast cancer cell line; assay: MTT cytotoxicity assay; format: cell-based; conditions: mean ± standard deviation
Procedure: as §1, §2, §3

[4] = test system: CCD-1079Sk cells; assay: Apoptosis assay (Annexin V/7-AAD, flow cytometry); format: cell-based; conditions: sample at IC50 concentration, 24 h
Procedure: (§4) FITC-Annexin V/7-AAD kit was used for the apoptosis experiment. Briefly, the cells were seeded into 12-well plates at 2 × 10^5 cells/well in 1 mL volume and cells were inoculated overnight. After that, 500 μL of fresh medium and 500 μL of sample at the concentration of IC50 were added to the wells. The cells were incubated with the samples for 24 h, then detached using 0.5 mL of trypsin solution, cells were collected and centrifuged at 3000 g for 3 min. The cells were washed with 200 μL of cell staining buffer, then dispersed in 100 μL of binding buffer. Following this, 5 μL of FITC-Annexin V and 10 μL of 7-AAD were added, and the mixture was incubated in the dark for 30 min. The samples were then analyzed by flow cytometry.
(§5) The Annexin V conjugated Alexa Fluor 488/7-AAD binding assay is based on the difference in fluorescence intensity between apoptotic and nonapoptotic cells stained with the fluorescent Annexin V/7-AAD, which is measured by flow cytometry. Therefore, an apoptosis assay was performed to determine the rate of live, apoptotic, and necrotic cells (Table 2, Figure S43). It is seen that compounds induce early and late apoptosis in MDA-MB-231 cells.

[5] = test system: MCF-7 cells; assay: Apoptosis assay (Annexin V/7-AAD, flow cytometry); format: cell-based, human; conditions: sample at IC50 concentration, 24 h
Procedure: as §4
as §5, with “It is seen that compounds induce early and late apoptosis in MDA-MB-231 cells.” left out

[6] = test system: MDA-MB-231 cells; assay: Apoptosis assay (Annexin V/7-AAD, flow cytometry); format: cell-based, human; conditions: sample at IC50 concentration, 24 h
Procedure: as §4, §5

[7] = test system: MCF-7 cells; assay: Cell cycle assay (PI, flow cytometry); format: cell-based, human; conditions: sample at IC50 concentration, 24 h; 59.5% in control cells
Procedure: (§6) The cell cycle kit was used for the cell cycle experiment. Briefly, the cells were seeded into 12-well plates in a volume of 1 mL at 2 × 10^5 cells/well, and cells were inoculated overnight. After that, 500 μL of fresh medium and 500 μL of the sample at the concentration of IC50 were added to the wells. The cells were incubated with the samples for 24 h, then detached using 0.5 mL of trypsin solution, cells were collected and centrifuged at 3000 g for 3 min. The collecting cells were washed with 1 mL of PBS and fixed with 1 mL of 70% cold ethanol at −20 °C for 24 h. After that, 200 μL of staining solution containing propidium iodide (PI) and RNAse reagents were added to the cells, and the cells were incubated for 30 min in the dark. Cell cycle profiles of synthesized compounds were analyzed using a flow cytometer (BD Accuri C6). The data were analyzed through BD software. Each assay was investigated in triplicate.

[8] = test system: MDA-MB-231 cells; assay: Cell cycle assay (PI, flow cytometry); format: cell-based, human; conditions: for MDA-MB-231 cell population in the G1-phase: sample at IC50 concentration, 24 h, 24.5% in control cells; for effect on cell cycle: summary in conclusion, MDA-MB-231 and/or MCF-7
Procedure: as §6

| Compound | IC50 ([1]; Fibroblast) | IC50 ([2]; Homo sapiens, MCF7, 24 h) | IC50 ([3]; Homo sapiens, MDA-MB-231, 24 h) | cell % Apoptotic, CCD-1079Sk [4] | cell % Apoptotic, MCF-7 [5] | cell % Necrotic, MCF-7 [5] | cell % Apoptotic, MDA-MB-231 [6] | cell % Necrotic, MDA-MB-231 [6] | IC50 [1] | IC50 ([2]; 24 h) | IC50 ([3]; 24 h) | cell % Necrotic, CCD-1079Sk [4] | MCF-7 cell population in the G1-phase [7] | MDA-MB-231 cell population in the G1-phase [8] | effect on cell cycle [8] | apoptosis induction in MCF-7 cells [5] |
| --- | --- | --- | --- | --- | --- | --- | --- | --- | --- | --- | --- | --- | --- | --- | --- | --- |
| CC(O)(CS(=O)(=O)c1ccc(F)cc1)C(=O)Nc1ccc(C#N)c(C(F)(F)F)c1 (centres unmarked) [Bical, bicalutamide, reference compound] | 9.16 ± 3.18 µM | 3.78 ± 1.85 µM | 8.34 ± 6.39 µM | 5.10 ± 0.21% | 2.05 ± 0.03% | 6.35 ± 1.20% | 6.70 ± 0.28% | 1.95 ± 0.21% | – | – | – | – | – | – | – | – |
| N.N.[Cl][Pt][Cl] [CisPt, cis-diamminedichloroplatinum(II), reference compound] | – | – | – | 5.00 ± 0.07% | 3.45 ± 0.03% | 1.10 ± 0.14% | 14.95 ± 0.74% | 1.55 ± 0.21% | 27.9 ± 7.24 µM | 3.98 ± 1.44 µM | 9.16 ± 7.74 µM | 3.90 ± 0.14% | – | – | – | – |
| [O-]N=C1C(=NO)N(c2ccccc2)CN1c1ccccc1.[O-]N=C1C(=NO)N(c2ccccc2)CN1c1ccccc1.[Pt+2] [L 1a Pt-b] | – | – | – | 3.65 ± 0.03% | 4.65 ± 0.81% | 0.95 ± 0.35% | 7.65 ± 0.25% | 1.15 ± 0.07% | 47.8 ± 6.42 µM | 5.58 ± 2.29 µM | 5.26 ± 5.53 µM | 4.15 ± 0.21% | 64.4% | 49.6% | regulate the cell cycle and increase the G1 population | – |
| O[N+]1=C2C(=[N+](O)[Pt-2]1([Cl])[Cl])N(c1ccccc1)CN2c1ccccc1 [L 1a Pt-m] | – | – | – | 2.65 ± 0.11% | – | 5.45 ± 1.06% | 9.35 ± 0.46% | 0.65 ± 0.21% | 59.5 ± 5.34 µM | 8.97 ± 5.28 µM | 9.63 ± 7.71 µM | – | – | 36.1% | regulate the cell cycle and increase the G1 population | induces more cancerous cells to undergo apoptosis |
| [O-]N=C1C(=NO)N(c2ccc(F)cc2)CN1c1ccc(F)cc1.[O-]N=C1C(=NO)N(c2ccc(F)cc2)CN1c1ccc(F)cc1.[Pt+2] [L 1b Pt-b] | – | – | – | 1.90 ± 0.07% | 2.95 ± 0.11% | 2.20 ± 0.14% | 7.45 ± 0.39% | 2.65 ± 0.07% | 67.9 ± 5.11 µM | 9.57 ± 5.41 µM | 9.73 ± 7.28 µM | 1.25 ± 0.07% | – | – | – | – |
| O[N+]1=C2C(=[N+](O)[Pt-2]1([Cl])[Cl])N(c1ccc(F)cc1)CN2c1ccc(F)cc1 [L 1b Pt-m] | – | – | – | – | 3.65 ± 0.18% | 0.95 ± 0.21% | 5.95 ± 0.25% | 0.65 ± 0.07% | 54.6 ± 6.25 µM | 6.91 ± 3.16 µM | 8.64 ± 7.71 µM | – | – | – | – | – |
| [O-]N=C1C(=NO)N(c2ccc(F)cc2F)CN1c1ccc(F)cc1F.[O-]N=C1C(=NO)N(c2ccc(F)cc2F)CN1c1ccc(F)cc1F.[Pt+2] [L 1c Pt-b] | – | – | – | 1.85 ± 0.03% | 2.05 ± 0.03% | 5.35 ± 1.34% | 8.00 ± 0.21% | 3.20 ± 0.14% | 73.9 ± 4.96 µM | 5.9 ± 2.04 µM | 6.94 ± 5.57 µM | 1.80 ± 0.14% | 64.1% | – | regulate the cell cycle and increase the G1 population | induces more cancerous cells to undergo apoptosis |
| O[N+]1=C2C(=[N+](O)[Pt-2]1([Cl])[Cl])N(c1ccc(F)cc1F)CN2c1ccc(F)cc1F [L 1c Pt-m] | – | – | – | 3.45 ± 0.03% | 5.95 ± 0.46% | 3.40 ± 0.71% | 6.20 ± 0.14% | 0.55 ± 0.07% | 45.2 ± 5.55 µM | 5.56 ± 2.39 µM | 25 ± 6.61 µM | 3.25 ± 0.07% | – | – | – | induces more cancerous cells to undergo apoptosis |
